Results: patent US20240325359A1, “ACAT1 INHIBITOR AND METHOD OF USE IN THE TREATMENT OF DISEASE” (Trustees of Dartmouth College, priority 2023, published 2024)

How the values were obtained:
human ACAT2 = molecular target: T1, human ACAT2 (Homo sapiens, UniProt O75908); experiment: Cholesteryl [3H]-oleate formation in CHO cells stably expressing human ACAT2
T1 sequence (O75908 1-522): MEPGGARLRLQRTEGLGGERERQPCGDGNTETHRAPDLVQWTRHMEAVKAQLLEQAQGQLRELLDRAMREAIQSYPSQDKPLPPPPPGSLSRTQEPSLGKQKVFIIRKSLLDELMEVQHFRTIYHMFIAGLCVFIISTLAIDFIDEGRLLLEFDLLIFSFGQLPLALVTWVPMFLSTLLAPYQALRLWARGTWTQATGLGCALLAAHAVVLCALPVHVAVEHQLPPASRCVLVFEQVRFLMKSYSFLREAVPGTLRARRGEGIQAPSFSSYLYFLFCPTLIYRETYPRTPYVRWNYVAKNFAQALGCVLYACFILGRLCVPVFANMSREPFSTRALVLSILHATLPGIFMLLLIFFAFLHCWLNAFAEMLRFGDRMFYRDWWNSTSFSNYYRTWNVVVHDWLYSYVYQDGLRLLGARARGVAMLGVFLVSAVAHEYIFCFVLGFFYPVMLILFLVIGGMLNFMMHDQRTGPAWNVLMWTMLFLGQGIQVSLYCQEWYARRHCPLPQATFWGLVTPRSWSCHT
Experimental: (§1) Cells were placed in 10% serum for two days at 37° C. and further incubated with various concentrations of F24 as a stock solution in DMSO for 2 hours. Subsequently, a complex of [3H]-oleic acid and BSA (serving as precursor of oleyl CoA as substrate of ACAT) was fed to the cells for 2 hours. Cells were extensively washed and cellular lipids were extracted with organic solvents. Radioactivity of cholesteryl [3H]-oleate was separated by thin-layer chromatography and determined by scintillation counting.

[1] = test system: ACAT activity in the brain; experiment: ACAT inhibition in mouse tissues after single IV of stealth nanoparticles; type: in vivo, mice
Experimental: Shown is the efficacy of F12511 vs. F24 encapsulated in nanoparticle and IV delivered to mice. Four hours after IV, various tissues were isolated to monitor ACAT inhibition measurement. Mice were perfused before brains were isolated. N=2-3 WT mice/group. Statistical analysis, 2-way ANOVA. **P<0.01; ***P<0.001.
Nanoparticle Formation. Nanoparticles were prepared according to a general method (Gülçür, et al. (2013) Drug Deliv. Transl. Res. 3(6):562-574; Jhaveri & Torchilin (2014) Front. Pharmacol. 5:77) with modifications. Using a clean glass tube (9 mL capacity), 60 mg of DSPE-PEG2000 (Laysan Bio, Inc (mPEG-DSPE, MW 2,000)) was dissolved in 500 μL of ethanol (EtOH) for a working concentration of 60 mM. […]
Nanoparticle Analysis. […] The content of compound was determined by extrapolation from a standard curve of a concentration gradient of the respective compound produced in the same TLC plate. The plate was stained with iodine and quantified using ImageJ. The TLC/iodine stain method detected compound, and DSPE-PEG2000/PC separately, thus allowing for encapsulation efficiency determination.
Delivery of F24 in Mice via Nanoparticles. […] Four hours after IV delivery, different tissues were isolated and the percent of ACAT inhibition was assessed.

human ACAT1 = molecular target: T2, human ACAT1 (Homo sapiens, UniProt P35610); experiment: Cholesteryl [3H]-oleate formation in CHO cells stably expressing human ACAT1
T2 sequence (P35610 1-550): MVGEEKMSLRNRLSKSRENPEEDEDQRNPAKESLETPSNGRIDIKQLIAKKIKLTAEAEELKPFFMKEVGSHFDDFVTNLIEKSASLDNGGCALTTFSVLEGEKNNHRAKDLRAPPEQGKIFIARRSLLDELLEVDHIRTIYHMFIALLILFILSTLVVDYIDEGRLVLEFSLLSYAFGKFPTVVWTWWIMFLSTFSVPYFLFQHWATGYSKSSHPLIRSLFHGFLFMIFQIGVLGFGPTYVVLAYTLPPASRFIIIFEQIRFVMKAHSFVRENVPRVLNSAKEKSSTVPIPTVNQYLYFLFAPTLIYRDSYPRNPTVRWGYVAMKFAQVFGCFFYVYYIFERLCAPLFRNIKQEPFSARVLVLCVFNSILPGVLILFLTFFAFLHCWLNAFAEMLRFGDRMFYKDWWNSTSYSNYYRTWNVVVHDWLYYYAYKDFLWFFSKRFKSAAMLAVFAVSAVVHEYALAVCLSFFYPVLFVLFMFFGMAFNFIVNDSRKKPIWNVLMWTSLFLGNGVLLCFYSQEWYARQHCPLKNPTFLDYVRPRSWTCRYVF
Experimental: as §1

EC50 (human ACAT2) [nM] | fold more potent than F12511 in inhibiting human ACAT2 (human ACAT2; ratio of EC50 values, 11 nM vs. 55 nM) | brain permeability ([1]; mice, delivered IV via stealth nanoparticle) | EC50 (human ACAT1) [nM] | fold more potent than F12511 in inhibiting ACAT1 (human ACAT1; ratio of EC50 values, 6 nM vs. 39 nM) | Structure (SMILES) | ACAT inhibition ([1]; adult C57BL/6 mice, single IV of nanoparticle F24 at low dose 0.9 mM, four hours after IV, brain) [%]
11 | five-fold | brain-permeable | 6 | seven-fold | CCCCCCCCCCCCSC(C(=O)Nc1c(SC)cc(C)nc1SC)c1ccccc1 (stereo not shown) [F24] | 70
55 | – | – | – | – | CCCCCCCCCCCCS[C@H](C(=O)Nc1cc(C)c(O)c(C)c1C)c1ccccc1 [F12511, reference compound] | –
